Source: patent US8551984B2, “Aminopyrimidines as SYK inhibitors” (Merck Sharp & Dohme Corp., priority 2009, dated 2013)
pIC50: −log10 of the molar value.

The compounds below were run against rhSYK (Homo sapiens, UniProt P43405). Conditions: read-out: rhSYK Activity; class symbol; where two forms are listed, one symbol per form.

Row | Structure (SMILES) | pIC50
1 | Cc1cc(Nc2nccc(C(F)(F)F)n2)cc(-c2cnc(C(O)(C3CC3)C3CC3)s2)c1 [Example 4A-37] | > 7.00
2 | Cc1cc(Nc2nccc(C(F)(F)F)n2)cc(-c2cnc(C(O)(CO)CO)s2)c1 [Example 4A-38] | > 7.00
3 | Cc1cc(Nc2nccc(C(F)(F)F)n2)cc(-c2cnc(C(O)CCC#N)s2)c1 (centres unmarked) [Example 4A-41] | > 7.00
4 | C=CCCC(O)c1ncc(-c2cc(C)cc(Nc3nccc(C(F)(F)F)n3)c2)s1 (centres unmarked) [Example 4A-42] | > 7.00
5 | Cc1cc(Nc2nccc(C(F)(F)F)n2)cc(-c2cnc(C(C)(O)CC(C)N)s2)c1 (centres unmarked) [Example 4A-45] | > 7.00
6 | Cc1cc(Nc2nccc(C(F)(F)F)n2)cc(-c2cnc(C(C)(O)CCCN)s2)c1 (centres unmarked) [Example 4A-46] | > 7.00
7 | Cc1cc(Nc2nccc(C(F)(F)F)n2)cc(-c2cnc(C(C)(O)CCCC(=O)O)s2)c1 (centres unmarked) [Example 4A-47] | > 7.00
8 | COc1ccsc1C(C)(O)c1ncc(-c2cc(C)cc(Nc3nccc(C(F)(F)F)n3)c2)s1 (centres unmarked) [Example 4A-50] | > 7.00
9 | Cc1cc(Nc2nccc(C(F)(F)F)n2)cc(-c2cnc(C(C)(O)c3cccc(C(=O)O)c3)s2)c1 (centres unmarked) [Example 4A-53] | > 7.00
10 | Cc1cc(Nc2nccc(C(F)(F)F)n2)cc(-c2cnc(C(C)(O)c3ccc([N+](=O)[O-])cc3)s2)c1 (centres unmarked) [Example 4A-56] | 6.00 to 7.00
11 | Cc1cc(Nc2nccc(C(F)(F)F)n2)cc(-c2cnc(C(C)(O)c3ccc(CC(=O)O)cc3)s2)c1 (centres unmarked) [Example 4A-58] | > 7.00
12 | COC(OC)C(O)(c1ccccn1)c1ncc(-c2cc(C)cc(Nc3nccc(C(F)(F)F)n3)c2)s1 (centres unmarked) [Example 4A-62] | > 7.00
13 | COc1cc(C(C)(O)c2ncc(-c3cc(C)cc(Nc4nccc(C(F)(F)F)n4)c3)s2)ccc1C(=O)O (centres unmarked) [Example 4A-64] | > 7.00
14 | Cc1cc(Nc2nccc(C(F)(F)F)n2)cc(-c2cnc(C(C)(O)c3cccc(OCC(=O)O)c3)s2)c1 (centres unmarked) [Example 4A-67] | > 7.00
15 | Cc1cc(Nc2nccc(C(F)(F)F)n2)cc(-c2cnc(C(C)(O)c3ccc(Br)nc3)s2)c1 (centres unmarked) [Example 4A-70] | > 7.00
16 | Cc1cc(Nc2nccc(C(F)(F)F)n2)cc(-c2cnc(C(C)(O)c3cncc(Br)c3)s2)c1 (centres unmarked) [Example 4A-71] | > 7.00
17 | COC(=O)c1ccc(C(C)(O)c2ncc(-c3cc(C)cc(Nc4nccc(C(F)(F)F)n4)c3)s2)cc1OC (centres unmarked) [Example 4A-72] | 6.00 to 7.00
18 | Cc1cc(Nc2nccc(C(F)(F)F)n2)cc(-c2cnc(C(C)(O)c3cccc(-c4cccc(C(=O)O)c4)c3)s2)c1 (centres unmarked) [Example 4A-75] | > 7.00
19 | CC1CCCC1(O)c1ncc(-c2cccc(Nc3nccc(C(F)(F)F)n3)c2)s1 (centres unmarked) [Example 4B-2] | > 7.00
20 | CCOC(=O)N1C2CCC1CC(O)(c1ncc(-c3cccc(Nc4nccc(C(F)(F)F)n4)c3)s1)C2 (centres unmarked) [Example 4B-3] | 6.00 to 7.00

Row | Structure (SMILES) | pIC50
21 | O=C(c1ccoc1)c1ncc(-c2cccc(Nc3nccc(C(F)(F)F)n3)c2)s1 [Example 4B-4] | 6.00 to 7.00
22 | N#CCCC1CCCCC1(O)c1ncc(-c2cccc(Nc3nccc(C(F)(F)F)n3)c2)s1 (centres unmarked) [Example 4B-6] | 6.00 to 7.00
23 | OC1(c2ncc(-c3cccc(Nc4nccc(C(F)(F)F)n4)c3)s2)CC2COCC(C1)N2Cc1ccccc1 (centres unmarked) [Example 4B-9] | 5.00 to 6.00
24 | Cc1cc(Nc2nccc(C)n2)cc(-c2cnc(C3(O)C4CC5CC3CN(C5)C4)s2)c1 (centres unmarked) [Example 4B-17] | 6.00 to 7.00
25 | Cc1cc(Nc2nccc(C(F)(F)F)n2)cc(-c2cnc(C3(O)CCCC4(OCCO4)C3(C)C)s2)c1 (centres unmarked) [Example 4B-28] | 6.00 to 7.00
26 | Cc1cc(Nc2nccc(C(F)(F)F)n2)cc(-c2cnc(C3(O)CC4C(Br)CC3C4C(=O)O)s2)c1 (centres unmarked) [Example 4B-53] | > 7.00
27 | Cc1cc(Nc2nccc(C(F)(F)F)n2)cc(-c2cnc(C3(O)CC4C(Br)CC3C4C(=O)O)s2)c1 (centres unmarked) [Example 4B-54] | > 7.00
28 | Cc1cc(Nc2nccc(C(F)(F)F)n2)cc(-c2cnc(C(=O)CCC#N)s2)c1 [Example 4B-59] | > 7.00
29 | Cc1cc(Nc2nccc(C(F)(F)F)n2)cc(-c2cnc(C(=O)CCC(=O)CCO)s2)c1 [Example 4B-62] | 6.00 to 7.00
30 | Cc1cc(Nc2nccc(C(F)(F)F)n2)cc(-c2cnc(C3(O)CCC(CN)CC3)s2)c1 (centres unmarked) [Example 4C-4] | > 7.00
31 | Cc1cc(Nc2nccc(C(F)(F)F)n2)cc(-c2cnc([C@]3(O)CC[C@H](CO)CC3)s2)c1 [Example 4C-6] | > 7.00
32 | Cc1cc(Nc2nccc(C(F)(F)F)n2)cc(-c2cnc(C3(O)CCC(CO)CC3)s2)c1 (centres unmarked) [Example 4C-7] | > 7.00
33 | Cc1cc(Nc2nccc(C(F)(F)F)n2)cc(-c2cnc([C@]3(O)CC[C@@H](CC(=O)O)CC3)s2)c1 [Example 4C-14] | > 7.00
34 | COC(=O)C1CCC(O)(c2ncc(-c3cc(C)cc(Nc4nccc(C(F)(F)F)n4)c3)s2)CC1C(C)C (centres unmarked) [Example 4C-25] | 6.00 to 7.00
35 | Cc1cc(Nc2nccc(C(F)(F)F)n2)cc(-c2cnc(C3(O)CCC(NC(=O)C4CCC(=O)O4)CC3)s2)c1 (centres unmarked) [Example 4C-30] | > 7.00
36 | Cc1cc(Nc2nccc(C(F)(F)F)n2)cc(-c2cnc([C@]3(O)CC[C@@H](NC(=O)Cc4ccccn4)CC3)s2)c1 [Example 4C-32] | > 7.00
37 | OC(c1ncc(-c2cccc(Nc3nccc(C(F)(F)F)n3)c2)s1)C(F)(F)F (centres unmarked) [Example 6-2] | > 7.00
38 | CCOC(=O)C(O)(c1ncc(-c2cc(C)cc(Nc3nccc(C(F)(F)F)n3)c2)s1)C(F)(F)F (centres unmarked) [Example 6-6] | > 7.00
39 | Cc1cc(Nc2nccc(C(F)(F)F)n2)cc(-c2cnc(C(O)(CO)C(F)(F)F)s2)c1 (centres unmarked) [Example 6-7] | > 7.00
40 | Cc1cc(Nc2nccc(C(F)(F)F)n2)cc(-c2cnc(C(C)(O)c3ccc(C(C)O)cc3)s2)c1 (centres unmarked) [Example 8B-4] | > 7.00

The next lines start with the values.

Row | pIC50 | Structure (SMILES)
41 | > 7.00 | Cc1cc(Nc2nccc(C)n2)cc(-c2cnc(C(O)(CO)CO)s2)c1 [Example 4A-39]
42 | > 7.00 | C=CCCC(C)(O)c1ncc(-c2cc(C)cc(Nc3nccc(C(F)(F)F)n3)c2)s1 (centres unmarked) [Example 4A-43]
43 | > 7.00 | COC(=O)C(C)(C)C(C)(O)c1ncc(-c2cc(C)cc(Nc3nccc(C(F)(F)F)n3)c2)s1 (centres unmarked) [Example 4A-48]
44 | 6.00 to 7.00 | Cc1cc(Nc2nccc(C(F)(F)F)n2)cc(-c2cnc(C(O)(c3ccccn3)C(C)C)s2)c1 (centres unmarked) [Example 4A-49]
45 | > 7.00 | CC(=O)c1ccc(C(C)(O)c2ncc(-c3cc(C)cc(Nc4nccc(C(F)(F)F)n4)c3)s2)cc1 (centres unmarked) [Example 4A-51]
46 | 6.00 to 7.00 | COC(=O)c1ccc(C(O)c2ncc(-c3cc(C)cc(Nc4nccc(C(F)(F)F)n4)c3)s2)cc1 (centres unmarked) [Example 4A-52]
47 | > 7.00 | Cc1cc(Nc2nccc(C(F)(F)F)n2)cc(-c2cnc(C(C)(O)Cc3ccc(C(=O)O)cc3)s2)c1 (centres unmarked) [Example 4A-61]
48 | > 7.00 | Cc1cc(Nc2nccc(C(F)(F)F)n2)cc(-c2cnc(C(C)(O)c3cc(CC(=O)O)cs3)s2)c1 (centres unmarked) [Example 4A-63]
49 | 6.00 to 7.00 | Cc1cc(Nc2nccc(C(F)(F)F)n2)cc(-c2cnc(C(C)(O)c3ccc(S(=O)(=O)N(C)C)cc3)s2)c1 (centres unmarked) [Example 4A-73]
50 | > 7.00 | Cc1cc(Nc2nccc(C(F)(F)F)n2)cc(-c2cnc(C(C)(O)c3cnc4sc(C(=O)O)c(C)c4c3)s2)c1 (centres unmarked) [Example 4A-74]
51 | > 7.00 | Cc1cc(Nc2nccc(C(F)(F)F)n2)cc(-c2cnc(C(C)(O)c3ccc(N4CC(C(=O)O)CC4=O)cc3)s2)c1 (centres unmarked) [Example 4A-78]
52 | > 7.00 | COc1ccnc(Nc2cc(C)cc(-c3cnc(C(C)(O)c4ccc(C(=O)O)cc4)s3)c2)n1 (centres unmarked) [Example 4A-79]
53 | > 7.00 | Cc1cc(Nc2nccc(C(F)(F)F)n2)cc(-c2cnc(C3(O)CCC3)s2)c1 [Example 4B-1]
54 | > 7.00 | O=C(c1ccon1)c1ncc(-c2cccc(Nc3nccc(C(F)(F)F)n3)c2)s1 [Example 4B-5]
55 | > 7.00 | Cc1cc(Nc2nccc(C(F)(F)F)n2)cc(-c2cnc([C@]3(O)CC[C@@H](CO)CC3)s2)c1 [Example 4C-8]
56 | > 7.00 | Cc1cc(Nc2nccc(C(F)(F)F)n2)cc(-c2cnc([C@]3(O)CC[C@H](CC(=O)O)CC3)s2)c1 [Example 4C-15]
57 | 6.00 to 7.00 | CCOC(=O)C1CCCC(O)(c2ncc(-c3cc(C)cc(Nc4nccc(C(F)(F)F)n4)c3)s2)C1 (centres unmarked) [Example 4C-21]
58 | > 7.00 | Cc1cc(Nc2nccc(C(F)(F)F)n2)cc(-c2cnc(C3(O)CCC(CC(C)(C)C(=O)O)CC3)s2)c1 (centres unmarked) [Example 4C-26]
59 | > 7.00 | Cc1cc(Nc2nccc(C(F)(F)F)n2)cc(-c2cnc([C@]3(O)CC[C@@H](NC(=O)Cn4ccnc4)CC3)s2)c1 [Example 4C-29]
60 | > 7.00 | Cc1cc(Nc2nccc(C(F)(F)F)n2)cc(-c2cnc(C3(O)CCC(NC(=O)C4CCC(=O)O4)CC3)s2)c1 (centres unmarked) [Example 4C-31]

Same assay, conditions: read-out: rhSYK activity; class symbol given

Row | Structure (SMILES) | pIC50
61 | Cc1cc(Nc2nccc(C(F)(F)F)n2)cc(-c2cnc([C@]3(O)CC[C@](C)(O)CC3)s2)c1 [Example 9(1), trans-1-methyl-4-[5-(3-methyl-5-{[4-(trifluoromethyl)pyrimidin-2-yl]amino}phenyl)-1,3-thiazol-2-yl]cyclohexane-1,4-diol] | > 7.00
62 | Cc1cc(Nc2nccc(C(F)(F)F)n2)cc(-c2cnc(C3(O)CCN(C(=O)OC(C)(C)C)CC3)s2)c1 [Example 45, tert-butyl-4-hydroxy-4-[5-(3-methyl-5-{[4-(trifluoromethyl)pyrimidin-2-yl]amino}phenyl)-1,3-thiazol-2-yl]piperidine-1-carboxylate] | 6.00 to 7.00
63 | Cc1cc(Nc2nccc(C(F)(F)F)n2)cc(-c2cnc(C3(NS(=O)(=O)C(C)(C)C)COC3)s2)c1 [Example 61, 2-methyl-N-{3-[5-(3-methyl-5-{[4-(trifluoromethyl)pyrimidin-2-yl]amino}phenyl)-1,3-thiazol-2-yl]oxetan-3-yl}propane-2-sulfonamide] | > 7.00

Further lines, results first:

Row | pIC50 | Structure (SMILES)
64 | > 7.00 | Cc1cc(Nc2nccc(C(F)(F)F)n2)cc(-c2cnc([C@]3(O)CC[C@@H](O)CC3)s2)c1 [Example 8(1), cis-1-[5-(3-methyl-5-{[4-(trifluoromethyl)pyrimidin-2-yl]amino}phenyl)-1,3-thiazol-2-yl]-cyclohexane-1,4-diol]
65 | > 7.00 | CC(=O)NC1(c2ncc(-c3cc(C)cc(Nc4nccc(C(F)(F)F)n4)c3)s2)CCC1 [Example 66, N-{1-[5-(3-methyl-5-{[4-(trifluoromethyl)pyrimidin-2-yl]amino}phenyl)-1,3-thiazol-2-yl]cyclobutyl}acetamide]
